Row | Structure (SMILES) | melting point
1 | Cn1ncnc1COc1nn2c(-c3ccccc3F)nncc2c1-c1cccc(F)c1F [Example 16, 3-(2,3-Difluorophenyl)-7-(2-fluorophenyl)2-(2-methyl-2H-[1,2,4]triazol-3-ylmethoxy)pyrazolo[1,5-d][1,2,4]triazine] | 176 °C
2 | Cn1ncnc1COc1nn2c(-c3ccccc3F)nncc2c1-c1cccc(C(F)(F)F)c1 [Example 18, 7-(2-Fluorophenyl)-2-(2-methyl-2H-[1,2,4]triazol-3-ylmethoxy)-3-[3-(trifluoromethyl)phenyl]pyrazolo[1,5-d][1,2,4]triazine] | 152 to 155 °C
3 | Cn1ncnc1COc1nn2c(-c3ccccc3F)nncc2c1-c1cc(F)cc(F)c1 [Example 20, 3-(3,5-Difluorophenyl)-7-(2-fluorophenyl)-2-(2-methyl-2H-[1,2,4]triazol-3-ylmethoxy)pyrazolo[1,5-d][1,2,4]triazine] | 171 to 173 °C
4 | CCn1ncnc1COc1nn2c(-c3cc(F)ccc3F)nncc2c1C(C)(C)C [Example 22, 7-(2,5-Difluorophenyl)-3-(1,1-dimethylethyl)-2-(2-ethyl-2H-[1,2,4]triazol-3-ylmethoxy)pyrazolo[1,5-d][1,2,4]triazine] | 108 °C
5 | CCn1ncnc1COc1nn2c(-c3c(F)ccc(F)c3F)nncc2c1C(C)(C)C [Example 29, 3-(1,1-Dimethylethyl)-2-(2-ethyl-2H-[1,2,4]triazol-3-ylmethoxy)-7-(2,3,6-trifluorophenyl)pyrazolo[1,5-d][1,2,4]triazine] | 42 °C
6 | CC(C)n1ncnc1COc1nn2c(-c3cc(F)ccc3F)nncc2c1C(C)(C)C [Example 30, 7-(2,5-Difluorophenyl)-3-(1,1-dimethylethyl)-2-(2-isopropyl-2H-[1,2,4]triazol-3-ylmethoxy)pyrazolo[1,5-d][1,2,4]triazine] | 163 °C
7 | Cn1ncnc1COc1nn2c(-c3cnccn3)nncc2c1-c1ccccc1F [Example 31, 3-(2-Fluorophenyl)-2-(2-methyl-2H-[1,2,4]triazol-3-ylmethoxy)-7-(pyrazin-2-yl)pyrazolo[1,5-d][1,2,4]triazine] | 179 to 180 °C
8 | CCn1ncnc1COc1nn2c(-c3cc(F)ccc3F)nncc2c1C(C)(C)CC [Example 33, 7-(2,5-Difluorophenyl)-3-(1,1-dimethylpropyl)-2-(2-ethyl-2H-[1,2,4]triazol-3-ylmethoxy)pyrazolo[1,5-d][1,2,4]triazine] | 85 to 86 °C

The next lines start with the values.

Row | melting point | Structure (SMILES)
9 | 215 to 219 °C | Cn1ncnc1COc1nn2c(-c3ccccc3F)nncc2c1Br [Example 17, 3-Bromo-7-(2-fluorophenyl)-2-(2-methyl-2H-[1,2,4]triazol-3-ylmethoxy)pyrazolo[1,5-d][1,2,4]triazine]
10 | 144 °C | Cn1ncnc1COc1nn2c(-c3cc(F)ccc3F)nncc2c1C(C)(C)C [Example 21, 7-(2,5-Difluorophenyl)-3-(1,1-dimethylethyl)-2-(2-methyl-2H-[1,2,4]triazol-3-ylmethoxy)pyrazolo[1,5-d][1,2,4]triazine]
11 | 128 °C | Cn1ncnc1COc1nn2c(-c3ccccc3F)nncc2c1C(C)(C)C [Example 24, 3-(1,1-Dimethylethyl)-7-(2-fluorophenyl)-2-(2-methyl-2H-[1,2,4]triazol-3-ylmethoxy)pyrazolo[1,5-d][1,2,4]triazine]
12 | 105 °C | CCn1ncnc1COc1nn2c(-c3ccccc3F)nncc2c1C(C)(C)C [Example 25, 3-(1,1-Dimethylethyl)-2-(2-ethyl-2H-[1,2,4]triazol-3-ylmethoxy)-7-(2-fluorophenyl)pyrazolo[1,5-d][1,2,4]triazine]
13 | 93 °C | CCCn1ncnc1COc1nn2c(-c3ccccc3F)nncc2c1C(C)(C)C [Example 26, 3-(1,1-Dimethylethyl)-7-(2-fluorophenyl)-2-(2-propyl-2H-[1,2,4]triazol-3-ylmethoxy)pyrazolo[1,5-d][1,2,4]triazine]
